Tests used:
Assay type in all cases: cell-based
TLR7 = target: T1, TLR7 (Homo sapiens, UniProt Q9NYK1); assay: huPBMC TLR7 Antagonist IFNα Assay; settings: human PBMCs stimulated with ssRNA40 10 μg/mL (DOTAP), 14-16 hrs; IFNα2b AlphaLISA read-out
T1 construct: Fresh blood was collected from normal human donors; endogenous in cells; host or cells: human PBMCs from fresh donor blood
T1 sequence (Q9NYK1 27-1049): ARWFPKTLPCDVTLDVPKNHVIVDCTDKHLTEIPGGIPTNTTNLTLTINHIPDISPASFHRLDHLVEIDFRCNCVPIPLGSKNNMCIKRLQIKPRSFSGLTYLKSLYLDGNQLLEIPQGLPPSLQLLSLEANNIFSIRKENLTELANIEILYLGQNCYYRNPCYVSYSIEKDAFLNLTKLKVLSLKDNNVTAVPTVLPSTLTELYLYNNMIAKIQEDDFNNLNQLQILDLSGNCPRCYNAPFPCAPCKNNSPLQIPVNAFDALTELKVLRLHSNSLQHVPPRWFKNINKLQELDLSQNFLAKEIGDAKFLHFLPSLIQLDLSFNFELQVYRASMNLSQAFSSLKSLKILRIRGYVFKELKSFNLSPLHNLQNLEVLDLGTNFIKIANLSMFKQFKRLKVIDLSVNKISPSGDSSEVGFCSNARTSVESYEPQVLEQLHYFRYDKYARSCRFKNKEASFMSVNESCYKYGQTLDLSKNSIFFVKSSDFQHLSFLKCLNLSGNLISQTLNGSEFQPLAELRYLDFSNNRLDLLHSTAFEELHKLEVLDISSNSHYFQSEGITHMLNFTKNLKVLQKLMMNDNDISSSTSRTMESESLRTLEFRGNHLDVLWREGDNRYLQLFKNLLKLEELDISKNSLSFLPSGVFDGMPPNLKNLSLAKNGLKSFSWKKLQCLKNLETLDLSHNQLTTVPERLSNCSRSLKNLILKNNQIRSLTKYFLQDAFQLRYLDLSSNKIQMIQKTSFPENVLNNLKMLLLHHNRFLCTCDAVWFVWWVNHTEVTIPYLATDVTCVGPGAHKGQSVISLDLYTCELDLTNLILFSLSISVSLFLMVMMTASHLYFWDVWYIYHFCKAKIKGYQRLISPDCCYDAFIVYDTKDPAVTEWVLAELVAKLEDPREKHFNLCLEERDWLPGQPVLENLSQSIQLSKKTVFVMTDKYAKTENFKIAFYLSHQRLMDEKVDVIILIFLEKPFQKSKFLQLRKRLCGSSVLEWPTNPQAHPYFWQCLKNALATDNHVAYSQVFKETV
Protocol: (§1) Compounds were generally serially diluted (1/3) in DMSO and plated on sterile 384 well tissue culture plates and stored until ready for use. Each ten-point dilution was typically plated in triplicate in parallel rows.
(§2) Fresh blood was collected from normal human donors underwritten informed consent in heparinized syringes on the morning of the assay. The blood was diluted in RPMI-1640 medium and the white blood cells were separated from red blood cells by centrifugation (800 g 15′ 0 acceleration, 0 brake) on a Ficoll cushion. Peripheral blood mononuclear cells (PBMCs) were separated from platelets by a series of low-speed centrifugations (1000RPM 10′) in PBS+5% HI—FBS and 1 mM EDTA. Purified PBMCs were re-suspended in assay medium (RPMI-1640 w Glutamax (Invitrogen) supplemented with 5% HI—FBS, 10 mM HEPES, 50 uM β-mercaptoethanol, and 100 mG/L penicillin/streptomycin cocktail). Viable PBMCs were counted on a hemacytometer and kept on ice until ready for plating.
(§3) A 4× concentration (4 ug/ml or 40 ug/ml for TLR8 or TLR7 assays, respectively) of the TLR7/8 agonist ssRNA40 (IDT) was complexed with 10% DOTAP (Roche) in assay medium for 30 min prior to addition to the PBMC suspension (5 million cells/ml). After addition, the final concentration of ssRNA40 in the TLR7/8 stimulated PBMC suspension was 1 μg/ml for TLR8 assay, and 10 μg/mL for the TLR7 assay. The final DOTAP concentration was 2.5%. Diluted PBMCs (5 million cells/ml) were treated with 4×TLR9 agonist ODN2216 (Invivogen). Final concentration of ODN2216 in TLR9 stimulated PBMC suspension was 0.3 μM.
(§4) Agonist stimulated PBMCs were plated on the compound treated 384 well plates at 150,000 cells/well. Un-stimulated PBMCs were plated as controls on each plate. Plating volume was 40 μL per well. DMSO concentration in each well was 0.25%.
(§5) A separate plate, without compounds, with titrations of ssRNA40 and ODN2216 was included in every assay to measure agonist response of each donor's PBMC prep. Assay plates were placed in a tissue culture incubator (37° C., 5% CO2) for 14-16 hrs. After this incubation, the plates were centrifuged and stored at −20° C. until they were assayed.
(§6) IL-6 TR-FRET Assay for TLR8 activity: • 1) Cisbio Human IL-6 kit, 20,000 tests (62TNFPEC), and GNF High-Base TC 384 well plates (cat #789163G) were used; • 2) the Anti-TIL-6 Cryptate conjugate and the Anti-IL-6 XL665 conjugate were diluted 1:20 in Reconstitution Buffer; • 3) a 1:1 mixture of 3 μl/well Anti-IL-6 Cryptate conjugate and 3 μl/well Anti-IL-6 XL665 conjugate was prepared; • 4) 6 μl/well HTRF dilution mastermix was added to 6 μl of transferred supernatant samples in proxiplates; • 5) The plates were incubated for 3 hrs at rt in the dark; and • 6) the levels of IL-6 production was measured using an Envision plate reader (665 nm (emmission)/590 nm (excitation)) with HTRF settings and ratiometric read-out: (XL665 emission/Eu Cryptate emission)×10,000. IFNα2b AlphaLISA Assay for TLR7 or TLR9 activity After thawing the assay plates, 6 μL of supernatant samples were transferred to a low-volume AlphaPlate 384SW (Perkin-Elmer). The concentration of IFNα in supernatants was measured using the IFNα2b AlphaLISA Assay (Perkin-Elmer: AL297F). 3 μL of IFNα acceptor beads/biotinylated antibody solution was added first, using laboratory automation. After an hour incubation, […] of streptavidin […] bead solution was added. The plates containing this mixture were incubated in the dark for an hour and read on an appropriate plate reader at reading parameters set by the manufacturer. (Envision, EnSpire: Perkin-Elmer).

TLR9 = target: T2, TLR9 (Homo sapiens, UniProt Q9NR96); assay: huPBMC TLR9 Antagonist IFNα Assay; settings: human PBMCs stimulated with ODN2216 0.3 μM, 14-16 hrs; IFNα2b AlphaLISA read-out
T2 construct: Fresh blood was collected from normal human donors; endogenous in cells; host or cells: human PBMCs from fresh donor blood
T2 sequence (Q9NR96 26-1032): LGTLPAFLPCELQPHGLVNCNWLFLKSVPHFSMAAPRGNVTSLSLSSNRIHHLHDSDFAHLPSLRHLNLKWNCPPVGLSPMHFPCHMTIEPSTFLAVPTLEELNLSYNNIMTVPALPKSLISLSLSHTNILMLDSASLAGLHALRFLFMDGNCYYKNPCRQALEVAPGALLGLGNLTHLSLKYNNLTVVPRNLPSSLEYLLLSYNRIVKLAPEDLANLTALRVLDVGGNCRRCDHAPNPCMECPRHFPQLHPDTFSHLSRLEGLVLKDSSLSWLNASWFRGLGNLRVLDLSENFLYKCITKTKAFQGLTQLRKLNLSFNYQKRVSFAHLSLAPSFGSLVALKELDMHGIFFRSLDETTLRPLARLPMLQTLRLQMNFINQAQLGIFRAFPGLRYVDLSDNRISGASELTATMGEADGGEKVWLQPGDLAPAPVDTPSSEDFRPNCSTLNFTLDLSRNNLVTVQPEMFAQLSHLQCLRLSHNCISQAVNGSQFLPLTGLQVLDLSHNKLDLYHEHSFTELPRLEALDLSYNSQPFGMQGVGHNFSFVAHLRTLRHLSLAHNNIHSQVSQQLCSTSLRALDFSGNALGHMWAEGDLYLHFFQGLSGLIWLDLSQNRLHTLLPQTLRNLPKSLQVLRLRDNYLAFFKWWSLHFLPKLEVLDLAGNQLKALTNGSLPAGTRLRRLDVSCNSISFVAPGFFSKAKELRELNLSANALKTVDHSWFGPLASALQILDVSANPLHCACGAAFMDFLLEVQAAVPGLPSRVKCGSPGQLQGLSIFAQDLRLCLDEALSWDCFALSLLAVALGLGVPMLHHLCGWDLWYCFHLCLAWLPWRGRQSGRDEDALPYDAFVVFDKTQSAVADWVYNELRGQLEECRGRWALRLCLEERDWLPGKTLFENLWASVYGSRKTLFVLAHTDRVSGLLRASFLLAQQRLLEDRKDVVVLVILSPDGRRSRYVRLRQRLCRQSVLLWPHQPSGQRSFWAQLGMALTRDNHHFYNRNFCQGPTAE
Protocol: as §1, §2, §3, §4, §5, §6

TLR8 = target: T3, TLR8 (Homo sapiens, UniProt Q9NR97); assay: huPBMC TLR8 Antagonist IL-6 TR-FRET Assay; parameters: Fresh blood was collected from normal human donors; endogenous in cells; host or cells: human PBMCs from fresh donor blood; settings: human PBMCs stimulated with ssRNA40 1 μg/ml (DOTAP), 14-16 hrs; IL-6 TR-FRET read-out
T3 sequence (Q9NR97 27-1041): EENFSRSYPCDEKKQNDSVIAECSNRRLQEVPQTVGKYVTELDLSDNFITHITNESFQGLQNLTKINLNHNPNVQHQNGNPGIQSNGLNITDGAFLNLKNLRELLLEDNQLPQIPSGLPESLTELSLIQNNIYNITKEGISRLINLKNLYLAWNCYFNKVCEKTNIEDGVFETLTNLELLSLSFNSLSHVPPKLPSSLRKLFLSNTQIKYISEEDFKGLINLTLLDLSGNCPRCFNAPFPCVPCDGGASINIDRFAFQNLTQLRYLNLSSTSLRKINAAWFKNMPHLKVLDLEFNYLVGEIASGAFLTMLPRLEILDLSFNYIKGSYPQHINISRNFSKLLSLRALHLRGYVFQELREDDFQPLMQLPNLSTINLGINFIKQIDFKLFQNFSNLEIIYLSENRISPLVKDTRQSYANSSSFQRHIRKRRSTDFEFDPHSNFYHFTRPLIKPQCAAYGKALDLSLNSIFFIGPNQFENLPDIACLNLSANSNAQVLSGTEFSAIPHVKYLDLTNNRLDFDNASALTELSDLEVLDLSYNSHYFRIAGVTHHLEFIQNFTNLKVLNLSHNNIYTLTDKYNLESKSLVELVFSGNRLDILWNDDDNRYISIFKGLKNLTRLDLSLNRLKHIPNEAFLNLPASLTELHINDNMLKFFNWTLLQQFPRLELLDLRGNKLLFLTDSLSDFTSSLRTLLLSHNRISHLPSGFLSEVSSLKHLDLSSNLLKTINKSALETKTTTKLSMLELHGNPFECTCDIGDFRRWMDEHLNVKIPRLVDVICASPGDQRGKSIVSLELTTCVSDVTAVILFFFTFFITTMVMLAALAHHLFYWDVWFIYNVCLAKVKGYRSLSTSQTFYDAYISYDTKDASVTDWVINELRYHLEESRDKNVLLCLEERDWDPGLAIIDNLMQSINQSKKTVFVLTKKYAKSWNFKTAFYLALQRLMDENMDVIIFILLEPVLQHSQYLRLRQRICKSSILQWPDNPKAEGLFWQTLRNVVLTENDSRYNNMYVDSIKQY
How it was run: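 Human PBMCs from fresh donor blood (150,000 cells/well) stimulated 14–16 h at 37 °C with DOTAP-complexed ssRNA40 (final 1 μg/ml for TLR8, 10 μg/mL for TLR7) or ODN2216 (final 0.3 μM, TLR9), 0.25% DMSO, ten-point 1/3 compound dilutions. Supernatant IL-6 read by HTRF (TLR8); IFNα by IFNα2b AlphaLISA (TLR7/TLR9).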

SMILES	IC50 (TLR7) [nM]	IC50 (TLR9) [nM]	IC50 (TLR8) [nM]
CC(=O)NC12CCC(Cn3nc(C)c4c3CCN(c3cc(C)nc5c3cnn5C)C4)(CC1)CC2 [compound 47, N-(4-((5-(1,6-dimethyl-1H-pyrazolo[3,4-b]pyridin-4-yl)-3-methyl-4,5,6,7-tetrahydro-1H-pyrazolo[4,3-c]pyridin-1-yl)methyl)bicyclo[2.2.2]octan-1-yl)acetamide]	4	> 10000	–
CCn1ncc2c(N3CCc4c(c(C)nn4CC45CCC(NC(=O)OC(C)(C)C)(CC4)CC5)C3)cc(C)nc21 [compound 145, tert-butyl (4-((5-(1-ethyl-6-methyl-1H-pyrazolo[3,4-b]pyridin-4-yl)-3-methyl-4,5,6,7-tetrahydro-1H-pyrazolo[4,3-c]pyridin-1-yl)methyl)bicyclo[2.2.2]octan-1-yl)carbamate]	61	–	> 10000
